Columns and labels:
[1] = test system: mouth of professional panelists; experiment: Test Experiment 2: sensory evaluation of cooling sensation persistence in the mouth; format: in vivo, human; conditions: for Cooling sensation persistence time: 180 ppm aqueous solution retained in the mouth 30 seconds, then spit out, time until cooling sensation disappeared, average of 10 panelists; for persistence of cooling sensation effect relative to the (1R)-p-menthane-3,8-diol isomer mixture: 180 ppm aqueous solution, from Table 2
Experimental: (§1) [Test Experiment 2] Sensory Evaluation for Comparison of Cooling Sensation Persistence between (1S)-p-Menthane-3,8-diol Isomer Mixture, (1RS)-p-Menthane-3,8-diol Isomer Mixture, and (1R)-p-Menthane-3,8-diol Isomer Mixture Aqueous solutions containing 180 ppm of the (1S)-p-menthane-3,8-diol isomer mixture, the (1RS)-p-menthane-3,8-diol isomer mixture, and the (1R)-p-menthane-3,8-diol isomer mixture obtained in Example 1, Example 2, and Comparative Example 1, respectively, were prepared. Sensory evaluation was conducted in the mouth on these 180 ppm aqueous solutions by 10 professional panelists having 5-year or longer experience. In the sensory evaluation, each 180 ppm aqueous solution was retained in the month for 30 seconds, and then spit out. After that, the time taken until the cooling sensation disappeared was measured, and the average was calculated to evaluate the effect.

[2] = test system: mouth of professional panelists; experiment: Test Experiment 1: sensory evaluation of cooling sensation strength in the mouth; format: in vivo, human; conditions: 180 ppm aqueous solution in the mouth, 10 panelists; relative score, Comparative Example 1 taken as 3
Experimental: as §1, with “1]” for “2]”, “Strength” for “Persistence”, “experience.” for “experience. In the sensory evaluation, each 180 ppm aqueous solution was retained in the month for 30 seconds, and then spit out. After that, the time taken until the cooling sensation disappeared was measured, and the average was calculated to evaluate the effect.”

| Compound | Cooling sensation persistence time [1] [min] | Average cooling sensation strength score [2] | persistence of cooling sensation effect relative to the (1R)-p-menthane-3,8-diol isomer mixture [1] |
| --- | --- | --- | --- |
| C[C@@H]1CCC(C(C)(C)O)C(O)C1 (mixture of isomers) [Comparative Example 1, (1R)-p-menthane-3,8-diol isomer mixture, reference compound] | 4.3 | 3 |  |
| C[C@H]1CCC(C(C)(C)O)C(O)C1 (mixture of isomers) [Example 1, (1S)-p-menthane-3,8-diol isomer mixture] | 15.5 | 15 | approximately 3.6 times |
| CC1CCC(C(C)(C)O)C(O)C1 (racemic) [Example 2, (1RS)-p-menthane-3,8-diol isomer mixture] | 9.8 | 9 | approximately 2.3 times |

From patent US20140219931A1, “P-MENTHANE-3,8-DIOL ISOMER MIXTURE, COOLING SENSATION COMPOSITION COMPRISING THE SAME, AND PRODUCT COMPRISING THE COOLING SENSATION COMPOSITION” (TAKASAGO INTERNATIONAL CORPORATION, priority 2011, published 2014)
